Measurements as given in ChEMBL document CHEMBL1201862, “PubChem BioAssay data set” (2004).
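Grown in 96-well plates, cells were treated for 48 hours with each compound at five concentrations. Insufficient inhibition: endpoint recorded as highest concentration tested. GI50 is the concentration that inhibits growth by half.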 Activity calls are given as the source filed them. No stated cut-off is given here; in the data, active = GI50 up to about 1.1 µM and inactive = higher.

Columns and labels:
Assay in all cases: growth of human tumour cells (NCI), 48 h
CCRF-CEM = test system: CCRF-CEM
EKVX = test system: EKVX
HOP-62 = test system: HOP-62
HT-29 = test system: HT-29
K562 = test system: K562
LOX IMVI = test system: LOX IMVI
NCI-H23 = test system: NCI-H23
NCI-H460 = test system: NCI-H460
NCI-H522 = test system: NCI-H522
RXF 393 = test system: RXF 393
SK-MEL-28 = test system: SK-MEL-28
SK-MEL-2 = test system: SK-MEL-2
SK-OV-3 = test system: SK-OV-3
SN12C = test system: SN12C
U-251 = test system: U-251
UACC-62 = test system: UACC-62
A549 = test system: A549
COLO 205 = test system: COLO 205
OVCAR-4 = test system: OVCAR-4
SF-295 = test system: SF-295

Measured: GI50

CCOC(=O)NC(Nc1ncccn1)(C(F)(F)F)C(F)(F)F
inactive: CCRF-CEM > 100 µM | EKVX > 100 µM | HOP-62 > 100 µM | HT-29 > 100 µM | K562 > 100 µM | LOX IMVI > 100 µM | NCI-H23 > 100 µM | NCI-H460 > 100 µM | NCI-H522 > 100 µM | RXF 393 > 100 µM | SK-MEL-28 > 100 µM | SK-MEL-2 > 100 µM | SK-OV-3 > 100 µM | SN12C > 100 µM | U-251 > 100 µM | UACC-62 > 100 µM

CCN1c2ccccc2-n2c(C)nnc2-c2c(-c3ccccc3)n[nH]c21
inactive: A549 22.4 µM | CCRF-CEM 17.5 µM | COLO 205 32.4 µM | EKVX 49.7 µM | HT-29 24.5 µM | K562 4.83 µM | LOX IMVI 23.1 µM | NCI-H23 35.5 µM | NCI-H460 27.8 µM | NCI-H522 2.25 µM | OVCAR-4 22 µM | RXF 393 44.5 µM | SF-295 31 µM | SK-MEL-28 30.5 µM | SK-MEL-2 19.7 µM | SK-OV-3 57.9 µM | SN12C 24.4 µM | U-251 18.5 µM | UACC-62 22.4 µM

CC1C(=O)C(C)C(c2ccco2)N(N=O)C1c1ccco1 (stereo not given)
inactive: A549 > 100 µM | CCRF-CEM > 100 µM | COLO 205 > 100 µM | EKVX > 100 µM | HOP-62 > 100 µM | HT-29 > 100 µM | K562 > 100 µM | LOX IMVI > 100 µM | NCI-H23 > 100 µM | NCI-H460 > 100 µM | NCI-H522 > 100 µM | OVCAR-4 > 100 µM | RXF 393 > 100 µM | SF-295 > 100 µM | SK-MEL-28 > 100 µM | SK-MEL-2 > 100 µM | SK-OV-3 > 100 µM | SN12C > 100 µM | U-251 > 100 µM | UACC-62 > 100 µM

O=C(N/C(=C\c1ccccc1[N+](=O)[O-])c1nc2ccccc2[nH]1)c1ccccc1
inactive: CCRF-CEM 57.9 µM | COLO 205 > 100 µM | HT-29 > 100 µM | K562 43.9 µM | NCI-H23 > 100 µM | NCI-H522 56.8 µM | OVCAR-4 > 100 µM | RXF 393 56.1 µM | SF-295 55.8 µM | SK-MEL-28 > 100 µM | SK-MEL-2 > 100 µM | SK-OV-3 > 100 µM | SN12C > 100 µM | U-251 > 100 µM | UACC-62 62.4 µM

CCOc1ncn(-c2ccc(NC(=S)Nc3ncccn3)cc2)n1
inactive: A549 32.1 µM | CCRF-CEM 20 µM | COLO 205 29.5 µM | EKVX 64 µM | HOP-62 > 100 µM | HT-29 13 µM | K562 25.8 µM | LOX IMVI 17.6 µM | NCI-H23 81.5 µM | NCI-H460 41.4 µM | NCI-H522 17.4 µM | OVCAR-4 21.8 µM | SF-295 97.5 µM | SK-MEL-28 26.1 µM | SK-OV-3 > 100 µM | SN12C 51.1 µM | U-251 > 100 µM | UACC-62 28.8 µM

CC(Sc1ccccc1)C(CO)(CO)[N+](=O)[O-] (stereo not given)
inactive: A549 19.8 µM | CCRF-CEM 1.85 µM | EKVX 18.2 µM | HOP-62 18.2 µM | HT-29 16.3 µM | K562 11.2 µM | LOX IMVI 7.85 µM | NCI-H23 16.8 µM | NCI-H460 22.8 µM | NCI-H522 13.5 µM | OVCAR-4 17.8 µM | RXF 393 16.4 µM | SF-295 14.7 µM | SK-MEL-2 18.2 µM | SK-OV-3 22.2 µM | SN12C 16.8 µM | U-251 13.3 µM | UACC-62 15.8 µM

CCC1C(C#N)=C(O)NC(O)=C1C#N
inactive: A549 > 100 µM | COLO 205 > 100 µM | EKVX > 100 µM | HOP-62 > 100 µM | HT-29 > 100 µM | LOX IMVI > 100 µM | NCI-H23 > 100 µM | NCI-H460 > 100 µM | NCI-H522 > 100 µM | OVCAR-4 > 100 µM | RXF 393 > 100 µM | SF-295 > 100 µM | SK-MEL-28 > 100 µM | SK-MEL-2 > 100 µM | SK-OV-3 > 100 µM | SN12C > 100 µM | U-251 > 100 µM | UACC-62 > 100 µM

CCP(=O)(CC)C(Cl)(Cl)C(O)C(Cl)(Cl)Cl (stereo not given)
inactive: A549 > 100 µM | CCRF-CEM > 100 µM | COLO 205 > 100 µM | HOP-62 > 100 µM | HT-29 > 100 µM | K562 > 100 µM | LOX IMVI > 100 µM | NCI-H23 > 100 µM | NCI-H460 > 100 µM | NCI-H522 > 100 µM | OVCAR-4 > 100 µM | SF-295 > 100 µM | SK-MEL-28 > 100 µM | SK-MEL-2 > 100 µM | SK-OV-3 > 100 µM | SN12C > 100 µM | U-251 > 100 µM

CCOC(=O)Cc1cc(OC)c(OC)cc1/C(Cl)=C(\C=O)c1ccc(OC)c(OC)c1
inactive: A549 16.9 µM | CCRF-CEM > 10 µM | COLO 205 21.8 µM | EKVX 22.1 µM | HOP-62 9.35 µM | HT-29 15.8 µM | K562 17.2 µM | LOX IMVI 17.9 µM | NCI-H23 19.6 µM | NCI-H460 3.4 µM | OVCAR-4 18.5 µM | RXF 393 57.8 µM | SF-295 15.2 µM | SK-MEL-28 24.2 µM | SK-MEL-2 19.7 µM | SK-OV-3 37.1 µM | SN12C 15.2 µM | U-251 17.5 µM | UACC-62 16.4 µM

CC(=O)c1c(-c2ccco2)c(C#N)c(=S)n(C2OC(CO)C(O)C(O)C2O)c1-c1ccccc1 (stereo not given)
inactive: A549 > 100 µM | CCRF-CEM 43.3 µM | COLO 205 > 100 µM | EKVX 43.1 µM | HOP-62 47.6 µM | HT-29 > 100 µM | K562 58.9 µM | LOX IMVI 36.2 µM | NCI-H23 31.8 µM | NCI-H460 > 100 µM | OVCAR-4 73.3 µM | RXF 393 37 µM | SF-295 52.7 µM | SK-MEL-28 38.9 µM | SK-OV-3 > 100 µM | SN12C 54.5 µM | U-251 28.4 µM | UACC-62 32 µM

COc1ccc(-c2cc(O)c3c(C)ccnc3n2)cc1
inactive: A549 10.3 µM | CCRF-CEM 17.8 µM | COLO 205 4.26 µM | EKVX 30.7 µM | HOP-62 20.7 µM | HT-29 4.93 µM | K562 3.85 µM | LOX IMVI 14.3 µM | NCI-H23 19 µM | NCI-H522 8.13 µM | OVCAR-4 24.8 µM | RXF 393 19.9 µM | SK-MEL-28 15.3 µM | SK-MEL-2 7.6 µM | SK-OV-3 23 µM | SN12C 27.7 µM | UACC-62 10.6 µM
